pIC50: −log10 of the molar value. The source made the active and inactive calls. The rule behind the calls is not given here.
Tests used:
[1] = tested on: MOLM-13; test: Induction of cell cycle arrest in human MOLM-13 cells assessed as accumulation of cells at G1 phase at 1 uM measured after 48 hrs by PI staining based flow cytometry analysis (reference value: 42.8%); format: functional
[2] = molecular target: Mast/stem cell growth factor receptor Kit (Homo sapiens) (UniProt P10721); test: Inhibition of human ckit at 1 uM by Eurofins kinase assay
[3] = tested on: MOLM-13; test: Antiproliferative activity against human MOLM-13 cells assessed as inhibition of cell growth measured after 72 hrs by Celltiter-glo luminescent cell viability assay; format: functional, cell-based; conditions: MOLM-13, 72 h
[4] = tested on: MOLM-13; test: Induction of apoptosis in human MOLM-13 cells assessed as viable cells at 0.3 uM measured after 48 hrs by annexin-V and PI staining based flow cytometry analysis (reference value: 88.7%); format: functional; conditions: read-out: Activity
[5] = tested on: MOLM-13; test: Induction of apoptosis in human MOLM-13 cells assessed as necrotic cells at 0.3 uM measured after 48 hrs by annexin-V and PI staining based flow cytometry analysis (reference value: 0.087%); format: functional
[6] = tested on: MOLM-13; test: Induction of cell cycle arrest in human MOLM-13 cells assessed as accumulation of cells at G2 phase at 1 uM measured after 48 hrs by PI staining based flow cytometry analysis (reference value: 12.5%); format: functional
[7] = tested on: MOLM-13; test: Antitumor activity against human MOLM-13 cells xenografted in female NSG mouse model assessed as delay in tumor growth at 20 to 40 mg/kg/day, po measured after 21 days; format: functional, organism-based; conditions: dose 20-40 mg/kg/day, time 21.0 day
[8] = molecular target: Serine/threonine-protein kinase PAK 4 (Homo sapiens) (UniProt O96013); test: Inhibition of human PAK4 at 1 uM by Eurofins kinase assay
[9] = molecular target: Aurora kinase B (Homo sapiens) (UniProt Q96GD4); test: Inhibition of human AuroraB at 1 uM by Eurofins kinase assay
Chain of Aurora kinase B (Homo sapiens) (Q96GD4 whole entry): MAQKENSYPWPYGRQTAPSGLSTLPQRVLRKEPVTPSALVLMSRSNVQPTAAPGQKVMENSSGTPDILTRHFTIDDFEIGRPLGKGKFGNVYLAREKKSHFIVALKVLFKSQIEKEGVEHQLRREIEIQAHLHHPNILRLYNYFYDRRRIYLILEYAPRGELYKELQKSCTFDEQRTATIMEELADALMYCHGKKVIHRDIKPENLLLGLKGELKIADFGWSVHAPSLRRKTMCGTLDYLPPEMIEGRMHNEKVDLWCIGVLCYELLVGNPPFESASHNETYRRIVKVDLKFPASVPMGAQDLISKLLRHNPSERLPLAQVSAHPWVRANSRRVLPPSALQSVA

[10] = molecular target: Vascular endothelial growth factor receptor 2 (Homo sapiens, UniProt P35968); test: Inhibition of human KDR at 1 uM by Eurofins kinase assay
[11] = molecular target: Tyrosine-protein kinase Lck (Homo sapiens) (UniProt P06239); test: Inhibition of human LCK at 1 uM by Eurofins kinase assay
[12] = tested on: MOLM-13; test: Induction of apoptosis in human MOLM-13 cells assessed as late apoptotic cells at 1 uM measured after 48 hrs by annexin-V and PI staining based flow cytometry analysis (reference value: 2.28%); format: functional
[13] = Clearance in Sprague-Dawley rat at 5 mg/kg, iv measured upto 48 hrs by LC-MS/MS analysis; format: ADME, organism-based; conditions: in vivo
[14] = molecular target: Insulin-like growth factor 1 receptor (Homo sapiens) (UniProt P08069); test: Inhibition of human IGF-1R at 1 uM by Eurofins kinase assay
Chain of Insulin-like growth factor 1 receptor (Homo sapiens) (P08069 31-736 limits assumed): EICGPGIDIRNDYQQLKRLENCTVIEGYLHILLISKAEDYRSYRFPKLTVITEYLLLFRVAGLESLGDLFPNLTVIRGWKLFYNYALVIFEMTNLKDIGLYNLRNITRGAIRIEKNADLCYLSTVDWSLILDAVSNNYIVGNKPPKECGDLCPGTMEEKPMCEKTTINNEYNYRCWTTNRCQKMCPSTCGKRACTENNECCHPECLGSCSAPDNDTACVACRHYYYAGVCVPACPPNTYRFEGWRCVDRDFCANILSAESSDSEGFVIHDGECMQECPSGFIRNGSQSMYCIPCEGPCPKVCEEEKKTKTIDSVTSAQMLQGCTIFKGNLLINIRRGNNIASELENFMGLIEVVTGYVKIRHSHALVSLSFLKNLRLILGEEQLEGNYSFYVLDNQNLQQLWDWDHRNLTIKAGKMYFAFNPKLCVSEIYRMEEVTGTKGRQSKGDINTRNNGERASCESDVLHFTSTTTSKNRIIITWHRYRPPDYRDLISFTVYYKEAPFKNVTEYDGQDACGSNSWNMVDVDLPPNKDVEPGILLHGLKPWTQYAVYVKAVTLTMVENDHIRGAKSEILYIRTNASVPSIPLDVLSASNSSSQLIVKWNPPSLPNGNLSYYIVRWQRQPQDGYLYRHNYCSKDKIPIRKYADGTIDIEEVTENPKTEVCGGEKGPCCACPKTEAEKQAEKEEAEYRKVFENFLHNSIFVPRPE
Chain of Insulin-like growth factor 1 receptor (Homo sapiens) (P08069 741-1367 limits assumed): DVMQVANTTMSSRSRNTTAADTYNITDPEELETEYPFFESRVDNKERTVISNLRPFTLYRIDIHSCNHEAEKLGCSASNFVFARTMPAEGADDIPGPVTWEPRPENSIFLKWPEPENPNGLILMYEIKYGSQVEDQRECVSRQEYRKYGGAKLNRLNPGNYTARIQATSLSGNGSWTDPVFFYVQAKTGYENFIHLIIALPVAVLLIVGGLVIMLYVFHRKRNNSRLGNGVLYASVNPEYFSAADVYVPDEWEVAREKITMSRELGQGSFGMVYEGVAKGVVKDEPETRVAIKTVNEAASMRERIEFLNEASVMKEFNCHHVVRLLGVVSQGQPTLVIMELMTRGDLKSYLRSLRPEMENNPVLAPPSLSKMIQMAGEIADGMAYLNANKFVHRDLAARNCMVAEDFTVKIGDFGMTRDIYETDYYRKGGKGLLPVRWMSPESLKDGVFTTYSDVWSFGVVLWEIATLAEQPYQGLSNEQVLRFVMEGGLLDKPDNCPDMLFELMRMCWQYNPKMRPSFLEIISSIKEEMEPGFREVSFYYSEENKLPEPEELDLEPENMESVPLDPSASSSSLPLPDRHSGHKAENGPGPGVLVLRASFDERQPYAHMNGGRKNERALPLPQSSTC

[15] = tested on: MOLM-13; test: Induction of apoptosis in human MOLM-13 cells assessed as early apoptotic cells at 1 uM measured after 48 hrs by annexin-V and PI staining based flow cytometry analysis (reference value: 8.92%); format: functional
[16] = molecular target: Insulin receptor (Homo sapiens) (UniProt P06213); test: Inhibition of human INSR at 1 uM by Eurofins kinase assay
Chain of Insulin receptor (Homo sapiens) (P06213 28-758 limits assumed): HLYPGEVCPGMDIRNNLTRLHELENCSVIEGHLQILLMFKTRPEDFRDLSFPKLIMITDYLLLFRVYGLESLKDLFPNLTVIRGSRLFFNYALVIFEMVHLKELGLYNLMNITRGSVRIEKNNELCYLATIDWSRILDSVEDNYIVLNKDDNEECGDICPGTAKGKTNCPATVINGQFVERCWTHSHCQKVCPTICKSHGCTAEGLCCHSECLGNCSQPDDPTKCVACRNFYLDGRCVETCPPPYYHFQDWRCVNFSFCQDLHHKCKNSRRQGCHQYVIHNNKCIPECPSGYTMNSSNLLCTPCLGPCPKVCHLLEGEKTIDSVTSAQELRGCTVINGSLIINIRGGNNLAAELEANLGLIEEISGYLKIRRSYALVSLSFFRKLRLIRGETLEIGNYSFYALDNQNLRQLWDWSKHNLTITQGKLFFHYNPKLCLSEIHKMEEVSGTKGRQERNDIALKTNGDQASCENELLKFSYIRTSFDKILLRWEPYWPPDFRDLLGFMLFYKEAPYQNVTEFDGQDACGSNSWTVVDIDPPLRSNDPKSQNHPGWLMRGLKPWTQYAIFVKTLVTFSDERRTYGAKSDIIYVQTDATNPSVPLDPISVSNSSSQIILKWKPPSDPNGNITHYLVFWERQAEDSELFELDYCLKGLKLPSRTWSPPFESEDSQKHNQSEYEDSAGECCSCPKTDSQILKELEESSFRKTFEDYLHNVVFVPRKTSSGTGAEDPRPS
Chain of Insulin receptor (Homo sapiens) (P06213 763-1382 limits assumed): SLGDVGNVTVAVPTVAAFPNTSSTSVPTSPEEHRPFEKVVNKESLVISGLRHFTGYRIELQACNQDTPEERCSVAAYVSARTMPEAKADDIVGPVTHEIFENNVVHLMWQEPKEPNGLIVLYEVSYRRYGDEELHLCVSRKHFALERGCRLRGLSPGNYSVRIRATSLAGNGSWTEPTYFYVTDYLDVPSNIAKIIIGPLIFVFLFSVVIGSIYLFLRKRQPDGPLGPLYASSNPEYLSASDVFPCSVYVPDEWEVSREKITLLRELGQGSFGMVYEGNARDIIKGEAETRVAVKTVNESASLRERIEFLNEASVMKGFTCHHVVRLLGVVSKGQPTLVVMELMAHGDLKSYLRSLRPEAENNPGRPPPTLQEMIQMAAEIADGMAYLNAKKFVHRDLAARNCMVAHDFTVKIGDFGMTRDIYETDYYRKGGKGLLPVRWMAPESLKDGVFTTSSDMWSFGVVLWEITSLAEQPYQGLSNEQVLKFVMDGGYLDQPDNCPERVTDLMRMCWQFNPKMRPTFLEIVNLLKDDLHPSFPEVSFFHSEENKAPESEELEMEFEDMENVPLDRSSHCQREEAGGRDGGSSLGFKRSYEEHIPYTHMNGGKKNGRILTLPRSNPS

[17] = Toxicity in female NSG mouse assessed as effect on liver at 20 to 40 mg/kg, po measured after 21 days by H and E staining based analysis; format: organism-based; conditions: in vivo, 504 h, dose 20-40 mg/kg, time 21 day
[18] = AUC (0 to t) in Sprague-Dawley rat at 5 mg/kg, iv measured upto 48 hrs by LC-MS/MS analysis; format: ADME, organism-based; conditions: in vivo
[19] = tested on: MOLM-13; test: Induction of apoptosis in human MOLM-13 cells assessed as early apoptotic cells at 3 uM measured after 48 hrs by annexin-V and PI staining based flow cytometry analysis (reference value: 8.92%); format: functional
[20] = molecular target: Receptor-type tyrosine-protein kinase FLT3 (Homo sapiens) (UniProt P36888); test: Inhibition of FLT3 phosphorylation in human MOLM-13 cells incubated for 2 hrs by Western blot analysis; format: cell-based; conditions: dose 0.04-5 µM
[21] = molecular target: Epidermal growth factor receptor (Homo sapiens) (UniProt P00533); test: Inhibition of human EGFR at 1 uM by Eurofins kinase assay
[22] = tested on: MOLM-13; test: Inhibition of STAT5 phosphorylation in human MOLM-13 cells incubated for 2 hrs by Western blot analysis; format: cell-based; conditions: dose 0.04-5 µM
[23] = tested on: OE33; test: Antiproliferative activity against human OE33 cells assessed as inhibition of cell growth measured after 72 hrs by Celltiter-glo luminescent cell viability assay; format: functional, cell-based; conditions: OE33, 72 h
[24] = tested on: MOLM-13; test: Induction of apoptosis in human MOLM-13 cells assessed as early apoptotic cells at 0.3 uM measured after 48 hrs by annexin-V and PI staining based flow cytometry analysis (reference value: 8.92%); format: functional
[25] = Toxicity in female NSG mouse assessed as effect on spleen at 20 to 40 mg/kg, po measured after 21 days by H and E staining based analysis; format: organism-based; conditions: in vivo, 504 h, dose 20-40 mg/kg, time 21 day
[26] = tested on: MOLM-13; test: Induction of apoptosis in human MOLM-13 cells assessed as viable cells at 3 uM measured after 48 hrs by annexin-V and PI staining based flow cytometry analysis (reference value: 88.7%); format: functional; conditions: read-out: Activity
[27] = molecular target: T1, Vascular endothelial growth factor receptor 3 (Homo sapiens, UniProt P35916); test: Inhibition of FLT4 (unknown origin) preincubated for 10 mins followed by addition of peptide solution by caliper mobility shift assay
T1 sequence (P35916 whole entry): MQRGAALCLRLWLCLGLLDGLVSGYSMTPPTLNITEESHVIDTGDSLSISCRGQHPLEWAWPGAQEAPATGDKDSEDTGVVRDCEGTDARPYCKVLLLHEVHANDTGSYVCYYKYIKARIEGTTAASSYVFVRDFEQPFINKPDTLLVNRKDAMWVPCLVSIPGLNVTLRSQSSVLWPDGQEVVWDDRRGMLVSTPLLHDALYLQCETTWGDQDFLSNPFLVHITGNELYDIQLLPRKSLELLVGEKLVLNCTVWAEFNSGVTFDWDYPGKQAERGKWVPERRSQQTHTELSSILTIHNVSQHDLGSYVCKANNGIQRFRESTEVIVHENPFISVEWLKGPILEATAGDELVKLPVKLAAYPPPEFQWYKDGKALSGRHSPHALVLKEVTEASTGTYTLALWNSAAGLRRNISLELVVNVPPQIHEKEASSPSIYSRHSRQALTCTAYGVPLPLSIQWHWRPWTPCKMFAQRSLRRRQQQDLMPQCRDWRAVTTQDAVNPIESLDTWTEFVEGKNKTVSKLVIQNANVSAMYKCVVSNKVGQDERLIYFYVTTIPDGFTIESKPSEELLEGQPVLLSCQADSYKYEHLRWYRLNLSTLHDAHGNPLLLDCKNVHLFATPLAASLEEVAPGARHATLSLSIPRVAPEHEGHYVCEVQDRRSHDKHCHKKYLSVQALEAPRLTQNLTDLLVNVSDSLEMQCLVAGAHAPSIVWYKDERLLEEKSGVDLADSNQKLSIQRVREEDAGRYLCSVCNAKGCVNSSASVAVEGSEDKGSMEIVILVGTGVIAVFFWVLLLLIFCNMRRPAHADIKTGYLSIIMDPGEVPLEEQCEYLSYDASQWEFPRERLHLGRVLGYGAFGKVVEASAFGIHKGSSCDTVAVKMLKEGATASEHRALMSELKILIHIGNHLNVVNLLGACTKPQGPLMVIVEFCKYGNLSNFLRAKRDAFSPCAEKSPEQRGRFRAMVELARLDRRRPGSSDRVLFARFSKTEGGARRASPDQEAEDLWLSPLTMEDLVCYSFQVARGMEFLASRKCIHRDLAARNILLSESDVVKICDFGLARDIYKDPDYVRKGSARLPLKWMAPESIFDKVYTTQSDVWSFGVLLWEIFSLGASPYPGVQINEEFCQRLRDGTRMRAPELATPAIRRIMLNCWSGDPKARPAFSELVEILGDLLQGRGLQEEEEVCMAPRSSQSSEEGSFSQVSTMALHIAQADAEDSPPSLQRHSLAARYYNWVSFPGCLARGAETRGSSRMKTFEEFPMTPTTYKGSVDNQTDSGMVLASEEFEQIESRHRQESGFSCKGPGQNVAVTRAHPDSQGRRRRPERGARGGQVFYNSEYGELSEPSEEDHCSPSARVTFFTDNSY

[28] = molecular target: T1, Vascular endothelial growth factor receptor 3; test: Inhibition of human FLT4 assessed as residual activity at 1 uM by Eurofins kinase assay relative to control
[29] = tested on: MV4-11; test: Antiproliferative activity against human MV4-11 cells assessed as inhibition of cell growth measured after 72 hrs by Celltiter-glo luminescent cell viability assay; format: functional, cell-based; conditions: MV4-11, 72 h
[30] = tested on: MOLM-13; test: Induction of cell cycle arrest in human MOLM-13 cells assessed as accumulation of cells at S phase at 1 uM measured after 48 hrs by PI staining based flow cytometry analysis (reference value: 45.3%); format: functional
[31] = tested on: MOLM-13; test: Induction of apoptosis in human MOLM-13 cells assessed as viable cells at 1 uM measured after 48 hrs by annexin-V and PI staining based flow cytometry analysis (reference value: 88.7%); format: functional; conditions: read-out: Activity
[32] = AUC (0 to infinity) in Sprague-Dawley rat at 5 mg/kg, iv measured upto 48 hrs by LC-MS/MS analysis; format: ADME, organism-based; conditions: in vivo
[33] = molecular target: High affinity nerve growth factor receptor (Homo sapiens) (UniProt P04629); test: Inhibition of human TrkA at 1 uM by Eurofins kinase assay
[34] = molecular target: Epithelial discoidin domain-containing receptor 1 (Homo sapiens) (UniProt Q08345); test: Inhibition of human DDR1 at 1 uM by Eurofins kinase assay
[35] = molecular target: Tyrosine-protein kinase ZAP-70 (Homo sapiens) (UniProt P43403); test: Inhibition of human ZAP-70 at 1 uM by Eurofins kinase assay
Chain of Tyrosine-protein kinase ZAP-70 (Homo sapiens) (P43403 whole entry): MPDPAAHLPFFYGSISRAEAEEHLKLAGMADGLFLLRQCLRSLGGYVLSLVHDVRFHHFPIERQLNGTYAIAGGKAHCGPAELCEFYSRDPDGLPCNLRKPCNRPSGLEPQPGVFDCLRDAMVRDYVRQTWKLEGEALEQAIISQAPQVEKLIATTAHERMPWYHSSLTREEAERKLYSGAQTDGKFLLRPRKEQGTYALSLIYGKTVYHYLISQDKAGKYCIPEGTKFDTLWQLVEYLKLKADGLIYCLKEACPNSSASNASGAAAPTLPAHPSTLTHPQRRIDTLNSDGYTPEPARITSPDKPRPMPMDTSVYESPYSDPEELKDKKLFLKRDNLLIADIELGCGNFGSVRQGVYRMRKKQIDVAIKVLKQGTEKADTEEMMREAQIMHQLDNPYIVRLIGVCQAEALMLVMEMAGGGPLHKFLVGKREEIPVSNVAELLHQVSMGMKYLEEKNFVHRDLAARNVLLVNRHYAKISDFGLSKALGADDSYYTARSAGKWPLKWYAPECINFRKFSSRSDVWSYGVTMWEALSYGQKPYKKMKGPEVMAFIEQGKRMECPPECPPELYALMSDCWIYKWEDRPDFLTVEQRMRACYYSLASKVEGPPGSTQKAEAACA

[36] = molecular target: Mitogen-activated protein kinase 8 (Homo sapiens) (UniProt P45983); test: Inhibition of human JNK1 at 1 uM by Eurofins kinase assay
[37] = tested on: U-87 MG; test: Antiproliferative activity against human U-87 MG cells assessed as inhibition of cell growth measured after 72 hrs by Celltiter-glo luminescent cell viability assay; format: functional, cell-based, U-87MG ATCC

With `O=C(Nc1ccc(Oc2ccnc(NC(=O)N3CC(O)C3)c2)c(F)c1)c1cn(-c2cccnc2)nn1` the Activity [1] was 87.7%, the inhibition [2] was “inactive” and the pIC50 [3] was 7.21. For the same molecule, the viability at 0.3 µM [4] was 68.4%, the Activity [5] was 0.063% and the Activity [6] was 4.33%. The Activity [7] was “Active”, the inhibition [8] was “inactive” and the inhibition [9] was “inactive”. For the same molecule, the inhibition [10] was “inactive”, the inhibition [11] was “inactive” and the Activity [12] was 9.44%. The clearance [13] was 1.41 mL/min/kg, the inhibition [14] was “inactive” and the Activity [15] was 33.6%. The inhibition [16] was “inactive”, the Activity [17] was “Non-toxic” and the AUC(0-t) at 48 h [18] was 59300 ng·h/mL. For the same molecule, the Activity [19] was 38.4%, the inhibition [20] was “Dose-dependent-effect” and the inhibition [21] was “inactive”. For the same molecule, the inhibition [22] was “Dose-dependent-effect”, the pIC50 [23] was < 4.52 and the Activity [24] was 25%. The Activity [25] was “Non-toxic”, the viability at 3 µM [26] was 50.6% and the pIC50 [27] was 6.32. The Activity [28] was 22%, the pIC50 [29] was 6.89 and the Activity [30] was 3.57%. For the same molecule, the viability at 1 µM [31] was 56.7%, the AUC(0-inf) [32] was 59400 ng·h/mL and the inhibition [33] was “inactive”. The inhibition [34] was “inactive”, the inhibition [35] was “inactive” and the inhibition [36] was “inactive”. For the same molecule, the pIC50 [37] was < 4.52.

Source: ChEMBL document CHEMBL6074715, “Discovery of pyridine-based derivatives as FLT3 inhibitors for the treatment of acute myeloid leukemia” (Eur J Med Chem, 2025)
